ChEMBL document CHEMBL5543099 (Eur J Med Chem, 2024)
≈ marks a conversion by molar mass, not a printed value. Calls of active or inactive are those of the source. The calls are words filed in the database; no cut-off is given here.

What was measured:
Escherichia coli = assay: Antimicrobial activity against Escherichia coli ATCC 25922 assessed as inhibition of bacterial growth incubated for 16 to 18 hrs by CLSI protocol based Muller Hinton broth assay; format: functional; settings: time 16-18 hrs
Enterococcus faecalis = assay: Antimicrobial activity against Enterococcus faecalis ATCC 29212 assessed as inhibition of bacterial growth incubated for 16 to 18 hrs by CLSI protocol based Muller Hinton broth assay; format: functional; settings: time 16-18 hrs
Staphylococcus aureus [1] = assay: Antimicrobial activity against Staphylococcus aureus ATCC 29213 assessed as inhibition of bacterial growth incubated for 16 to 18 hrs by CLSI protocol based Muller Hinton broth assay; format: functional; settings: time 16-18 hrs
[2] = tested on: Stenotrophomonas maltophilia; assay: Antimicrobial activity against Stenotrophomonas maltophilia ATCC 17808 assessed as inhibition of bacterial growth incubated for 16 to 18 hrs by CLSI protocol based Muller Hinton broth assay; format: functional; settings: time 16-18 hrs
[3] = Hemolytic activity in defibrinated sheep RBC incubated for 1 hrs; format: toxicity, cell-based, Ovis aries, Erythrocyte; settings: defibrinated sheep red blood cells
[4] = Cytotoxicity against human SW620 cells assessed as cell survival rate at 64 microg/ml incubated for 48 hrs by CCK8 assay relative to control; format: toxicity, cell-based, SW-620; settings: at 64 µg/mL, read-out: Activity
[5] = Cytotoxicity against rat HBZY-1 cells assessed as cell survival rate at 64 microg/ml incubated for 48 hrs by CCK8 assay relative to control; format: toxicity, cell-based; settings: at 64 µg/mL, read-out: Activity
Staphylococcus aureus [6] = assay: Antibacterial activity against Staphylococcus aureus assessed as inhibition of bacterial growth by measuring fold change in MIC incubated for 6 hrs in presence of 50% fetal bovine plasma by CLSI protocol based Muller Hinton broth assay; format: functional
Staphylococcus aureus [7] = assay: Antibacterial activity against Staphylococcus aureus assessed as inhibition of bacterial growth by measuring fold change in MIC incubated for 6 hrs in presence of 50% fetal bovine serum by CLSI protocol based Muller Hinton broth assay; format: functional
Staphylococcus aureus [8] = assay: Antibacterial activity against Staphylococcus aureus assessed as inhibition of bacterial growth by measuring fold change in MIC incubated for 6 hrs in presence of defibrinated sheep 50% plasma by CLSI protocol based Muller Hinton broth assay; format: functional
Cell membrane [9] = assay: Induction of Cytoplasmic membrane depolarization in Staphylococcus aureus at 16 microg/ml incubated for 15 mins by DiSC3(5) dye based fluorescence microplate reader; format: cell membranes; settings: dose 16.0 µg/ml
Cell membrane [10] = assay: Induction of inner membrane permeabilization in Staphylococcus aureus assessed as fluorescence intensity at 16 microg/ml incubated for 15 mins by PI staining based microplate reader; format: cell membranes; settings: dose 16.0 µg/ml
Cell membrane [11] = assay: Induction of cell membrane damage in Escherichia coli assessed as nucleic acid leakage at 4 times of MIC incubated for 2 hrs by n ultra-micro-volume spectrophotometric analysis; format: cell membranes
Staphylococcus aureus [12] = assay: Antibacterial activity against Staphylococcus aureus assessed as inhibition of bacterial growth incubated for 6 hrs in presence of 50% fetal bovine serum by CLSI protocol based Muller Hinton broth assay; format: functional
Staphylococcus aureus [13] = assay: Antibacterial activity against Staphylococcus aureus assessed as inhibition of bacterial growth incubated for 6 hrs in presence of defibrinated sheep 50% plasma by CLSI protocol based Muller Hinton broth assay; format: functional
Staphylococcus aureus [14] = assay: Antibacterial activity against Staphylococcus aureus assessed as inhibition of bacterial growth incubated for 6 hrs in presence of 50% fetal bovine plasma by CLSI protocol based Muller Hinton broth assay; format: functional

Molecule	MIC (Escherichia coli)	MIC (Enterococcus faecalis)	MIC (Staphylococcus aureus [1])	MIC [2]	HC50 at 1 h [3]	further results
CCCCCCNC(=O)C[n+]1ccc(C(=O)N2CCN(c3cc4c(cc3F)c(=O)c(C(=O)O)cn4C3CC3)CC2)cc1.[Br-]	8 µg/mL	8 µg/mL	8 µg/mL	16 µg/mL	> 1280 µg/mL	
CCCCNC(=O)C[n+]1cccc(C(=O)N2CCN(c3cc4c(cc3F)c(=O)c(C(=O)O)cn4C3CC3)CC2)c1.[Br-]	32 µg/mL	> 64 µg/mL	64 µg/mL	> 64 µg/mL	> 1280 µg/mL	
CCCNC(=O)C[n+]1cccc(C(=O)N2CCN(c3cc4c(cc3F)c(=O)c(C(=O)O)cn4C3CC3)CC2)c1.[Br-]	16 µg/mL	64 µg/mL	64 µg/mL	> 64 µg/mL	> 1280 µg/mL	
CCCCCCCNC(=O)C[n+]1ccc(C(=O)N2CCN(c3cc4c(cc3F)c(=O)c(C(=O)O)cn4C3CC3)CC2)cc1.[Br-]	4 µg/mL	2 µg/mL	4 µg/mL	32 µg/mL	> 1280 µg/mL	
O=C(O)c1cn(C2CC2)c2cc(N3CCN(C(=O)C[n+]4ccc(-c5ccccc5)cc4)CC3)c(F)cc2c1=O.[Br-]	16 µg/mL	8 µg/mL	16 µg/mL	16 µg/mL	> 1280 µg/mL	
CCCCCCCNC(=O)C[n+]1cccc(C(=O)N2CCN(c3cc4c(cc3F)c(=O)c(C(=O)O)cn4C3CC3)CC2)c1.[Br-]	8 µg/mL	8 µg/mL	8 µg/mL	64 µg/mL	> 1280 µg/mL	
CCCCCCCCNC(=O)C[n+]1cccc(C(=O)N2CCN(c3cc4c(cc3F)c(=O)c(C(=O)O)cn4C3CC3)CC2)c1.[Br-]	8 µg/mL	8 µg/mL	8 µg/mL	16 µg/mL	> 1280 µg/mL	
O=C(O)c1cn(C2CC2)c2cc(N3CCN(C(=O)c4cc[n+](Cc5ccc(C(F)(F)F)cc5)cc4)CC3)c(F)cc2c1=O.[Br-]	4 µg/mL	8 µg/mL	16 µg/mL	4 µg/mL	> 1280 µg/mL	
C=C[C@]1(C)C[C@@H](OC(=O)CSCCN(CC)CC)[C@]2(C)[C@H](C)CC[C@]3(CCC(=O)[C@H]32)[C@@H](C)[C@@H]1O [TIAMULIN]						viability at 48 h, 64 microg/ml [4]: 32.9%; viability at 48 h, 64 microg/ml [5]: 85.9%
CC[C@H](C)[C@H](NC(=O)CN)C(=O)NCC(=O)N[C@@H](C)C(=O)N[C@H](C(=O)N[C@@H](CC(C)C)C(=O)N[C@@H](CCCCN)C(=O)N[C@H](C(=O)N[C@@H](CC(C)C)C(=O)N[C@H](C(=O)N[C@H](C(=O)NCC(=O)N[C@@H](CC(C)C)C(=O)N1CCC[C@H]1C(=O)N[C@@H](C)C(=O)N[C@@H](CC(C)C)C(=O)N[C@H](C(=O)N[C@@H](CO)C(=O)N[C@@H](Cc1c[nH]c2ccccc12)C(=O)N[C@H](C(=O)N[C@@H](CCCCN)C(=O)N[C@@H](CCCNC(=N)N)C(=O)N[C@@H](CCCCN)C(=O)N[C@@H](CCCNC(=N)N)C(=O)N[C@@H](CCC(N)=O)C(=O)N[C@@H](CCC(N)=O)C(N)=O)[C@@H](C)CC)[C@@H](C)CC)[C@@H](C)O)[C@@H](C)O)C(C)C)C(C)C [MELITTIN]		2 µg/mL (≈ 0.703 µM)		8 µg/mL (≈ 2.81 µM)		viability at 48 h, 64 microg/ml [4]: 5.7%; fold change (FC) (Staphylococcus aureus [6]): 32; fold change (FC) (Staphylococcus aureus [7]): 32; fold change (FC) (Staphylococcus aureus [8]): 32; Activity (Cell membrane [9]): Active; Flu intensity (Cell membrane [10]): 600; Activity (Cell membrane [11]): Active; viability at 48 h, 64 microg/ml [5]: 1.4%
CC(C)(C)c1ccc(C[n+]2ccc(C(=O)N3CCN(c4cc5c(cc4F)c(=O)c(C(=O)O)cn5C4CC4)CC3)cc2)cc1.[Br-]	4 µg/mL	4 µg/mL	8 µg/mL	4 µg/mL	> 1280 µg/mL	
C=C[C@]1(C)C[C@@H](OC(=O)CS[C@@H]2C[C@H]3CC[C@@H](C2)N3C)[C@]2(C)[C@H](C)CC[C@]3(CCC(=O)[C@H]32)[C@@H](C)[C@@H]1O [RETAPAMULIN]						viability at 48 h, 64 microg/ml [4]: 4.7%; viability at 48 h, 64 microg/ml [5]: 1.7%
GENTAMICIN						Activity (Cell membrane [9]): inactive
O=C(O)c1cn(C2CC2)c2cc(N3CCN(C(=O)c4cc[n+](Cc5ccc(F)cc5)cc4)CC3)c(F)cc2c1=O.[Br-]	4 µg/mL	8 µg/mL	16 µg/mL	4 µg/mL	> 1280 µg/mL	
CCCNC(=O)C[n+]1ccc(C(=O)N2CCN(c3cc4c(cc3F)c(=O)c(C(=O)O)cn4C3CC3)CC2)cc1.[Br-]	16 µg/mL	16 µg/mL	16 µg/mL	> 64 µg/mL	> 1280 µg/mL	
CCCCCNC(=O)C[n+]1cccc(C(=O)N2CCN(c3cc4c(cc3F)c(=O)c(C(=O)O)cn4C3CC3)CC2)c1.[Br-]	32 µg/mL	64 µg/mL	32 µg/mL	> 64 µg/mL	> 1280 µg/mL	
CCCCNC(=O)C[n+]1ccc(C(=O)N2CCN(c3cc4c(cc3F)c(=O)c(C(=O)O)cn4C3CC3)CC2)cc1.[Br-]	16 µg/mL	16 µg/mL	16 µg/mL	64 µg/mL	> 1280 µg/mL	
CCCCCNC(=O)C[n+]1ccc(C(=O)N2CCN(c3cc4c(cc3F)c(=O)c(C(=O)O)cn4C3CC3)CC2)cc1.[Br-]	16 µg/mL	8 µg/mL	16 µg/mL	64 µg/mL	> 1280 µg/mL	
O=C(O)c1cn(C2CC2)c2cc(N3CCN(C(=O)c4cc[n+](Cc5ccc(Cl)cc5)cc4)CC3)c(F)cc2c1=O.[Br-]	8 µg/mL	8 µg/mL	16 µg/mL	8 µg/mL	> 1280 µg/mL	
CCCCCCCCCNC(=O)C[n+]1cccc(C(=O)N2CCN(c3cc4c(cc3F)c(=O)c(C(=O)O)cn4C3CC3)CC2)c1.[Br-]	8 µg/mL	8 µg/mL	8 µg/mL	32 µg/mL	> 1280 µg/mL	
C[C@@H](O)[C@H]1C(=O)N2C(C(=O)O)=C(S[C@@H]3CN[C@H](C(=O)N(C)C)C3)[C@H](C)[C@H]12 [MEROPENEM]	0.03 µg/mL (≈ 0.0782 µM)			0.06 µg/mL (≈ 0.156 µM)		
O=C(O)c1cn(C2CC2)c2cc(N3CCN(C(=O)c4cc[n+](Cc5ccc(-c6ccccc6)cc5)cc4)CC3)c(F)cc2c1=O.[Br-]	4 µg/mL	32 µg/mL	4 µg/mL	4 µg/mL	> 1280 µg/mL	
CCCCCCCCCNC(=O)C[n+]1ccc(C(=O)N2CCN(c3cc4c(cc3F)c(=O)c(C(=O)O)cn4C3CC3)CC2)cc1.[Br-]	4 µg/mL	2 µg/mL	4 µg/mL	16 µg/mL	> 1280 µg/mL	
CCCCCCNC(=O)C[n+]1cccc(C(=O)N2CCN(c3cc4c(cc3F)c(=O)c(C(=O)O)cn4C3CC3)CC2)c1.[Br-]	16 µg/mL	32 µg/mL	16 µg/mL	64 µg/mL	> 1280 µg/mL	
O=C(O)c1cn(C2CC2)c2cc(N3CCN(C(=O)c4cc[n+](Cc5ccccc5)cc4)CC3)c(F)cc2c1=O.[Br-]	8 µg/mL	8 µg/mL	16 µg/mL	4 µg/mL	> 1280 µg/mL	
COLISTIN						fold change (FC) (Staphylococcus aureus [6]): 2; fold change (FC) (Staphylococcus aureus [7]): 4; fold change (FC) (Staphylococcus aureus [8]): 4; MIC (Staphylococcus aureus [12]): 8 µg/mL; MIC (Staphylococcus aureus [13]): 16 µg/mL; MIC (Staphylococcus aureus [14]): 16 µg/mL
